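How tested: cells in 96-well plates exposed to compound for 48 hours at five concentrations. The concentration for 50% growth inhibition is given as GI50.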 Active and inactive are the calls of the source. Rule as the data show it: active = GI50 up to about 1.1 µM and inactive = higher.
Assays:
Experiment in all cases: NCI tumour cell line growth inhibition, 48 h
[1] = tested on: CAKI-1
[2] = tested on: COLO 205
[3] = tested on: HCC 2998
[4] = tested on: HCT-116
[5] = tested on: HL-60
[6] = tested on: HOP-62
[7] = tested on: HT-29
[8] = tested on: Hs-578T
[9] = tested on: M14
[10] = tested on: MOLT-4
[11] = tested on: NCI-H23
[12] = tested on: OVCAR-4
[13] = tested on: OVCAR-5
[14] = tested on: PC-3
[15] = tested on: SF-539
[16] = tested on: SK-MEL-2
[17] = tested on: SR
[18] = tested on: TK-10
[19] = tested on: U-251
[20] = tested on: UACC-257

Measured: GI50

C#CCOC(=O)C(=[N+]=[N-])C(=O)CC(C)C
inactive: [1] > 10 µM | [2] > 10 µM | [3] > 10 µM | [4] > 10 µM | [5] > 10 µM | [6] > 10 µM | [7] > 10 µM | [8] > 10 µM | [9] > 10 µM | [10] > 10 µM | [11] > 10 µM | [12] > 10 µM | [13] > 10 µM | [14] > 10 µM | [15] > 10 µM | [16] > 10 µM | [17] > 10 µM | [18] > 10 µM | [19] > 10 µM | [20] > 10 µM

O=C1OC[C@@H]2Cc3c([nH]c4ccccc34)[C@@H](c3ccc(O)cc3)N12
inactive: [1] 42.8 µM | [2] 22.4 µM | [3] 38.4 µM | [4] 18.7 µM | [5] 45 µM | [6] 35.6 µM | [7] 34.9 µM | [8] 88.3 µM | [9] 23.1 µM | [10] 31.3 µM | [11] 19.3 µM | [12] 32.4 µM | [13] 39.4 µM | [14] 24 µM | [15] 24.4 µM | [16] 22 µM | [17] 39.1 µM | [18] 34.7 µM | [19] 39.2 µM | [20] 29.9 µM

CCOC(=O)C(Cc1cn(S(=O)(=O)c2ccc(C)cc2)cn1)P(=O)(OCC)OCC (stereo not given)
inactive: [1] > 100 µM | [2] > 100 µM | [3] > 100 µM | [4] > 100 µM | [5] > 100 µM | [6] > 100 µM | [7] > 100 µM | [8] > 100 µM | [9] > 100 µM | [10] > 100 µM | [11] > 100 µM | [12] > 100 µM | [13] > 100 µM | [14] > 100 µM | [15] > 100 µM | [16] > 100 µM | [17] > 100 µM | [18] > 100 µM | [19] > 100 µM | [20] > 100 µM

CCOC(=O)/C=C(\C(=O)OCC)n1cc(C)c(=O)n(Cc2cnnn2CCCCOC(C)=O)c1=O
inactive: [1] 3.23 µM | [2] 2.09 µM | [3] 21 µM | [4] 6.53 µM | [5] 1.91 µM | [6] 27 µM | [7] 5.98 µM | [8] 17 µM | [9] 20.9 µM | [10] 2.64 µM | [11] 17.1 µM | [12] 19.2 µM | [13] 17.4 µM | [14] 16.4 µM | [15] 2.36 µM | [16] 22.1 µM | [17] 1.9 µM | [18] 5.94 µM | [19] 17.3 µM | [20] 15.7 µM

CC(C)(C)c1cc2c(O)c(c1)Cc1cc(C(C#N)(Cc3ccc4ccccc4c3)Cc3ccc4ccccc4c3)cc(c1O)Cc1cc(C(C)(C)C)cc(c1O)Cc1cc(C(C#N)(Cc3ccc4ccccc4c3)Cc3ccc4ccccc4c3)cc(c1O)C2
inactive: [1] > 100 µM | [2] > 100 µM | [3] > 100 µM | [4] > 100 µM | [5] > 100 µM | [6] > 100 µM | [7] > 100 µM | [8] > 100 µM | [9] > 100 µM | [10] > 100 µM | [11] > 100 µM | [12] > 100 µM | [13] > 100 µM | [14] > 100 µM | [15] > 100 µM | [16] > 100 µM | [17] 60.5 µM | [18] > 100 µM | [19] 67 µM | [20] > 100 µM

CN(C)c1ccc2c3c(c(=O)oc2c1)CCC3
inactive: [1] 43.8 µM | [2] 33.1 µM | [3] 54.7 µM | [4] 60.8 µM | [5] 26.9 µM | [6] 44 µM | [7] 44.8 µM | [8] 36.8 µM | [9] 92.3 µM | [10] 27.2 µM | [11] 74 µM | [12] > 100 µM | [13] > 100 µM | [14] 90.4 µM | [15] > 100 µM | [16] > 100 µM | [17] 42.6 µM | [18] 65.3 µM | [19] 88.3 µM | [20] 82.8 µM

O=c1c2ccccc2[nH]c(=S)n1-c1ccc(/N=N/c2cccc3cc(O)ccc23)cc1
inactive: [1] > 100 µM | [2] 44.5 µM | [3] > 100 µM | [4] > 100 µM | [5] 22.3 µM | [6] > 100 µM | [7] > 100 µM | [8] > 100 µM | [9] > 100 µM | [10] > 100 µM | [11] > 100 µM | [12] > 100 µM | [13] 74.1 µM | [14] 35.1 µM | [15] > 100 µM | [16] > 100 µM | [17] 94.6 µM | [18] > 100 µM | [19] 54.6 µM | [20] > 100 µM

— ChEMBL document CHEMBL1201862, “PubChem BioAssay data set” (2004)
